We go through 18 compounds from patent US20220324835A1 (Nurix Therapeutics, Inc., priority 2018, published 2022).

Broadly, the Kd is a measure of binding affinity in units of concentration. A word on the IC50: it is the point on the concentration scale where inhibition reaches its midpoint.

SMILES strings stand for the structures.

One assay addresses Cbl-b (residues 36-427) (Homo sapiens, UniProt Q13191). Nature of the assay: Cbl-b binding assay (SPR, Biacore T200). Conditions: 20° C., 1:1 binding model. The method, boiled down: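 Steps: capture protein on NeutrAvidin surface; inject compound dilutions (8 or 10 points from 100 or 50 μM) 50 s; allow 90-180 s dissociation; regenerate 20 s with 0.3 M NaCl. Runs at 20° C in HEPES pH 7.5/100 mM NaCl/2% DMSO; 1:1 fitting.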
A general note: Surface plasmon resonance follows binding to a sensor surface in real time, without labels.

In assay [1] the target is T1, Cbl-b (Homo sapiens, UniProt Q13191). Nature of the assay: Cbl-b inhibition assay (Cbl-b activity assay, FRET, Biological Example 1; 100 mM NaCl, 60 nM Src kinase). Conditions: upper bound stated in text lists; read-out: IC50 values in the Cbl-b inhibition assay of Biological Example 1. Type of assay: biochemical. The method, boiled down: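 Here, the E2 UbcH5B, irreversibly linked to Bodipy-fluorescein ubiquitin, binds Cbl-b once Src kinase phosphorylates it; Cbl-b carries an N-terminal biotinylated Avi-tag captured by streptavidin-terbium. An absent FRET signal indicates inhibition.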

Assay [2] addresses T1, Cbl-b. Briefly: Cbl-b activity assay (Cbl-b inhibition assay), TR-FRET of Cbl-b interaction with UbcH5B-Ub. Type of assay: biochemical. Conditions: assay buffer with 100 mM NaCl, 60 nM Src kinase; read-out: Cbl-b activity IC50. The method, boiled down: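 UbcH5B (C85K) conjugated to N-terminally Bodipy-Fluorescein-labeled ubiquitin served as the fluorescent partner. After compound preincubation, Src kinase (60 nM) with 1 mM ATP and 5 mM MgCl2 (final) was added for 1.5 h, followed by a further 1 h incubation. Some values were obtained with 50 mM NaCl and 30 nM Src.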

T1 sequence (Q13191 36-427): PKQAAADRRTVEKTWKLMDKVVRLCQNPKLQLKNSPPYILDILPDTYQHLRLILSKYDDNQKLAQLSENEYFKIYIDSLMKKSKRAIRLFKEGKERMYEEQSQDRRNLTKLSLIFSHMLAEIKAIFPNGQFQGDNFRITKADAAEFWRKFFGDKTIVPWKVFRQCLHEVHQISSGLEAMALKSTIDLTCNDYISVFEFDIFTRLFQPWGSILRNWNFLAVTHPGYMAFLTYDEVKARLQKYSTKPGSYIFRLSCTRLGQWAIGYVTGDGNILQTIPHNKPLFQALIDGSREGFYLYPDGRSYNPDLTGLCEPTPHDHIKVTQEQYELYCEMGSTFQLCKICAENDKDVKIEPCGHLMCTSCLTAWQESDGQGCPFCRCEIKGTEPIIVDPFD
Sequence of Cbl-b (residues 36-427) (Q13191 36-427): as above

On to `C[C@H](Cc1nncn1C)c1cccc(NC(=O)c2cc(C(=O)N3CCC(CO)C3)ccn2)c1` (stereo partly drawn) [Compound 245, 4-(3-(hydroxymethyl)pyrrolidine-1-carbonyl)-N-(3-((R)-1-(4-methyl-4H-1,2,4-triazol-3-yl)propan-2-yl)phenyl)picolinamide], for which the Kd on Cbl-b (residues 36-427) fell in the range of 3 to 10 µM. Moreover, the IC50 was not above 10 µM on Cbl-b [1] and 1 to 3 µM at Cbl-b [2].

Take `C[C@H](Cc1nncn1C)c1cccc(NC(=O)c2cc(C(=O)N3C[C@@H](F)[C@@H](O)C3)ccn2)c1` [Compound 246, cis-4-(3-fluoro-4-hydroxypyrrolidine-1-carbonyl)-N-(3-((R)-1-(4-methyl-4H-1,2,4-triazol-3-yl)propan-2-yl)phenyl)picolinamide]: the Kd on Cbl-b (residues 36-427) lay in the range of 1 to 3 µM. The IC50 is not above 10 µM at Cbl-b [1] and 1 to 3 µM on Cbl-b [2].

`C[C@H](Cc1nncn1C)c1cccc(NC(=O)c2cc(C(=O)N[C@@H]3CCNC3)ccn2)c1` [Compound 247, N2-[3-[(2R)-1-(4-methyl-4H-1,2,4-triazol-3-yl)propan-2-yl]phenyl]-N4-[(3R)-pyrrolidin-3-yl]pyridine-2,4-dicarboxamide] registered a Kd at Cbl-b (residues 36-427) of 3 to 10 µM. Further, the IC50 is not above 10 µM at Cbl-b [1] and 3 to 10 µM on Cbl-b [2].

In the case of `C[C@H](Cc1nncn1C)c1cccc(NC(=O)c2cc(C(=O)N[C@H]3CCNC3)ccn2)c1` [Compound 248, N2-(3-((R)-1-(4-methyl-4H-1,2,4-triazol-3-yl)propan-2-yl)phenyl)-N4-((s)-pyrrolidin-3-yl)pyridine-2,4-dicarboxamide], the Kd on Cbl-b (residues 36-427) is 3 to 10 µM. The IC50 at Cbl-b [1] is not above 10 µM; at Cbl-b [2], 3 to 10 µM.

Consider `CN[C@@H]1CCN(C(=O)c2ccnc(C(=O)Nc3cccc([C@H](C)Cc4nncn4C)c3)c2)C1` [Compound 249, N-(3-((R)-1-(4-methyl-4H-1,2,4-triazol-3-yl)propan-2-yl)phenyl)-4-((R)-3-(methylamino)pyrrolidine-1-carbonyl)picolinamide], for which the Kd at Cbl-b (residues 36-427) is 1 to 3 µM. The IC50 on Cbl-b [1] is not above 10 µM; at Cbl-b [2], 1 to 3 µM.

`CN[C@H]1CCN(C(=O)c2ccnc(C(=O)Nc3cccc([C@H](C)Cc4nncn4C)c3)c2)C1` [Compound 250, N-[3-[(2R)-1-(4-methyl-4H-1,2,4-triazol-3-yl)propan-2-yl]phenyl]-4-[(3S)-3-(methylamino)pyrrolidine-1-carbonyl]pyridine-2-carboxamide]: the Kd at Cbl-b (residues 36-427) was 1 to 3 µM. Also, the half-maximal inhibitory concentration (IC50) on Cbl-b [1] was not above 10 µM; at Cbl-b [2], 1 to 3 µM.

At Cbl-b (residues 36-427), `CC(Cc1nccn1C)c1cccc(NC(=O)c2cc(C(=O)N3CC[C@H](O)C3)ccn2)c1` (stereo partly drawn) [Compound 252, 4-((S)-3-hydroxypyrrolidine-1-carbonyl)-N-(3-(1-(1-methyl-s1H-imidazol-2-yl)propan-2-yl)phenyl)picolinamide] came in with a Kd of 1 to 3 µM. Besides, the results for the IC50 at Cbl-b [1] and at Cbl-b [2] were not above 10 µM and 3 to 10 µM, respectively.

Consider `C[C@H](Cc1nccn1C)c1cccc(NC(=O)c2cc(C(=O)N3CC[C@H](O)C3)ccn2)c1` [Compound 252a, 4-((S)-3-hydroxypyrrolidine-1-carbonyl)-N-(3-((R)-1-(1-methyl-1H-imidazol-2-yl)propan-2-yl)phenyl)picolinamide], for which the Kd at Cbl-b (residues 36-427) lay within 3 to 10 µM. For the same compound, the concentration for half-maximal inhibition (IC50) is not above 10 µM on Cbl-b [1] and 1 to 3 µM on Cbl-b [2].

On Cbl-b (residues 36-427), `C[C@H](Cc1nccn1C)c1cccc(NC(=O)c2cc(C(=O)N3C[C@@H](O)C[C@H]3C)ccn2)c1` [Compound 253, 4-((2R,4S)-4-hydroxy-2-methylpyrrolidine-1-carbonyl)-N-(3-((R)-1-(1-methyl-1H-imidazol-2-yl)propan-2-yl)phenyl)picolinamide] came in with a Kd of 3 to 10 µM. The IC50 on Cbl-b [1] was not above 10 µM; on Cbl-b [2], 3 to 10 µM.

Compound `C[C@H](Cc1nncn1C)c1cccc(NC(=O)c2cc(C(=O)N3CC[C@H](O)C3)ccc2F)c1` [Compound 254, 2-fluoro-5-((S)-3-hydroxypyrrolidine-1-carbonyl)-N-(3-((R)-1-(4-methyl-4H-1,2,4-triazol-3-yl)propan-2-yl)phenyl)benzamide] displayed a Kd on Cbl-b (residues 36-427) of 3 to 10 µM. Further, the IC50 at Cbl-b [1] was not above 10 µM; on Cbl-b [2], 1 to 3 µM.

As for `CC(C)c1nccc2c1CN(c1cccc([C@H](C)Cc3nncn3C)c1)C2=O` [Compound 259, (R)-4-isopropyl-2-(3-(1-(4-methyl-4H-1,2,4-triazol-3-yl)propan-2-yl)phenyl)-2,3-dihydro-1H-pyrrolo[3,4-c]pyridin-1-one], the Kd at Cbl-b (residues 36-427) fell in the range of 1 to 3 µM. Besides, the IC50 on Cbl-b [1] is not above 1 µM; on Cbl-b [2], 0.301 to 1 µM.

As to `C[C@H](Cc1ncn(C)n1)c1cccc(N2Cc3c(cccc3C(F)(F)F)C2=O)c1` [Compound 263, (R)-2-(3-(1-(1-methyl-1H-1,2,4-triazol-3-yl)propan-2-yl)phenyl)-4-(trifluoromethyl)isoindolin-1-one], the Kd on Cbl-b (residues 36-427) lay in the range of 3 to 10 µM. Besides, the IC50 on Cbl-b [1] is not above 10 µM; on Cbl-b [2], 3 to 10 µM.

In the case of `C[C@H](Cc1ncnn1C)c1cccc(N2Cc3c(cccc3C(F)(F)F)C2=O)c1` [Compound 264, (R)-2-(3-(1-(2-methyl-2H-1,2,4-triazol-3-yl)propan-2-yl)phenyl)-4-(trifluoromethyl)isoindolin-1-one], the dissociation constant (Kd) on Cbl-b (residues 36-427) is more than 10 µM. For the same compound, the IC50 at Cbl-b [1] was not above 10 µM; on Cbl-b [2], 3 to 10 µM.

`C[C@H](Cc1nnco1)c1cccc(N2Cc3c(cccc3C(F)(F)F)C2=O)c1` [Compound 266, (R)-2-(3-(1-(1,3,4-oxadiazol-2-yl)propan-2-yl)phenyl)-4-(trifluoromethyl)isoindolin-1-one] gave a Kd on Cbl-b (residues 36-427) of more than 10 µM. Moreover, the IC50 on Cbl-b [1] was not above 10 µM; at Cbl-b [2], 3 to 10 µM.

On Cbl-b (residues 36-427), `C[C@H](Cc1nccn1C)c1cccc(N2Cc3c(cccc3C(F)(F)F)C2=O)c1` [Compound 267a, (R)-2-(3-(1-(1-methyl-1H-imidazol-2-yl)propan-2-yl)phenyl)-4-(trifluoromethyl)isoindolin-1-one] had a dissociation constant (Kd) of 3 to 10 µM. For the same compound, the figures for the IC50 at Cbl-b [1] and at Cbl-b [2] were not above 10 µM and 1 to 3 µM, respectively.

The compound `CC(Cc1n[nH]cc1CO)c1cccc(N2Cc3c(cccc3C(F)(F)F)C2=O)c1` (stereo not drawn) [Compound 271, 2-(3-(1-(4-(hydroxymethyl)-1H-pyrazol-3-yl)propan-2-yl)phenyl)-4-(trifluoromethyl)isoindolin-1-one] came in with a Kd on Cbl-b (residues 36-427) of 3 to 10 µM. Further, the IC50 was not above 10 µM at Cbl-b [1] and 3 to 10 µM on Cbl-b [2].

For `C[C@H](Cc1nncn1C)c1cccc(N2Cc3c(cc(C(=O)O)cc3C(F)(F)F)C2=O)c1` [Compound 273, (R)-2-(3-(1-(4-methyl-4H-1,2,4-triazol-3-yl)propan-2-yl)phenyl)-3-oxo-7-(trifluoromethyl)isoindoline-5-carboxylic acid], at Cbl-b (residues 36-427), the Kd is 3 to 10 µM. Moreover, the concentration for half-maximal inhibition (IC50) is not above 10 µM on Cbl-b [1] and 1 to 3 µM at Cbl-b [2].

In turn, `C[C@H](Cc1nncn1C)c1cc(N2Cc3c(cccc3C(F)(F)F)C2=O)ccc1F` [Compound 280, 2-[4-fluoro-3-[(1R)-1-methyl-2-(4-methyl-1,2,4-triazol-3-yl)ethyl]phenyl]-4-(trifluoromethyl)isoindolin-1-one] registered a Kd on Cbl-b (residues 36-427) of 1 to 3 µM. Moreover, the IC50 was not above 10 µM at Cbl-b [1] and 3 to 10 µM on Cbl-b [2].
